From patent publication US20240300943A1, “NOVEL SALTS OF HETEROCYCLIC COMPOUND AS PROTEIN KINASE INHIBITOR AND USES THEREOF” (HK INNO.N CORPORATION, priority 2021, published 2024)

Columns and labels:
JAK2, Tyk2 = experiment: Human whole blood assay, JAK2, Tyk2; type: cell-based; conditions: cytokine-induced STAT phosphorylation
Protocol: A stock solution of Compound 1 obtained according to Preparation Example 1 was diluted with distilled water and then serially diluted at ⅕ with 4% DMSO. 5 μL of test material was added to 100 μL of whole blood collected using a 1.7 mL eppendorf tube, mixed, and incubated at 37° C. for 45 minutes.
IL-6 (10 μg/ml) was diluted with 0.1% BSA/DW to reach 1 μg/mL each. 5 μL of IL-6 was added (at a final concentration of 50 ng/mL) and incubated at 37° C. for 15 minutes. At this time, 5 μL of DPBS was added as a non-stimulated control group. Lyse/fix buffer 5× was diluted 1× in distilled water and used. […]
For double staining of CD4 and pSTATI, anti-[…] and anti-pSTATI were mixed in a staining buffer and added to each of the samples. […] On the next day, the results were analyzed using FACSCanto II. […]
The numerical values analyzed by FlowJo were calculated to obtain IC50 values using GraphPad Prism 5 software (product name).
No treatment response (NTR) was set as a reference, and the degree of the phosphorylation of STAT induced by cytokines was converted into a relative ratio (% control group). A dose-response plot was obtained for each concentration-dependent activity of each test material using GraphPad Prism (version 5.0) and ICso values were calculated.

[1] = Physical stability evaluation under stress conditions; type: physicochemical
Protocol: In order to evaluate physical stability, samples were packaged in the form of ((LPDE+N2)+silica gel 1 g+LDPE)+Al-Bag, and stored under stress conditions (60° C.±2° C./80% RH±5%) for 2/4 weeks before evaluation.
In table 2, initial is a result measured after preparation of salts, and S2W and S4W are results measured after two and four weeks while being exposed to stress conditions, respectively.

Row | IC50 (JAK2, Tyk2) [µM] | C.I quantitative ([1]; Initial) [%] | Content (anhydride, as anhydride) ([1]; Initial) [%] | Moisture ([1]; Initial) [%] | Purity: Individual related material ([1]; Initial) [%] | Purity: Total related material ([1]; Initial) [%] | C.I quantitative ([1]; S2W: 2 weeks at 60° C./80% RH) [%] | Content (anhydride, as anhydride) ([1]; S2W: 2 weeks at 60° C./80% RH) [%] | Moisture ([1]; S2W: 2 weeks at 60° C./80% RH) [%] | Purity: Individual related material ([1]; S2W: 2 weeks at 60° C./80% RH) [%] | Purity: Total related material ([1]; S2W: 2 weeks at 60° C./80% RH) [%] | C.I quantitative ([1]; S4W: 4 weeks at 60° C./80% RH) [%] | Content (anhydride, as anhydride) ([1]; S4W: 4 weeks at 60° C./80% RH) [%] | Moisture ([1]; S4W: 4 weeks at 60° C./80% RH) [%] | Purity: Individual related material ([1]; S4W: 4 weeks at 60° C./80% RH) [%] | Purity: Total related material ([1]; S4W: 4 weeks at 60° C./80% RH) [%] | Structure (SMILES)
1 | 3.64 |  |  |  |  |  |  |  |  |  |  |  |  |  |  |  | C[C@@H]1CN(C(=O)CC#N)CC=C1c1cc(NC(=O)C2CC2)nc2[nH]ccc12 [Compound 1, (S)—N-(4-(1-(2-cyanoacetyl)-3-methyl-1,2,3,6-tetrahydropyridin-4-yl)-1H-pyrrolo[2,3-b]pyridin-6-yl)cyclopropanecarboxamide]
2 |  | 24.0 | 98.9 | 0.2 | 0.08 | 0.41 | 24.1 | 99.9 | 0.2 | 0.08 | 0.43 | 23.8 | 99.9 | 0.2 | 0.11 | 0.53 | C[C@@H]1CN(C(=O)CC#N)CC=C1c1cc(NC(=O)C2CC2)nc2[nH]ccc12 [Example 3, (S)—N-(4-(1-(2-cyanoacetyl)-3-methyl-1,2,3,6-tetrahydropyridin-4-yl)-1H-pyrrolo[2,3-b]pyridin-6-yl)cyclopropanecarboxamide]
